Here are results for 57 compounds from the RepoRT retention time repository.

Molecules are shown by their SMILES.

This data set in a line: RP, Waters CORTECS UPLC C18, 100 × 2.1 mm, 1.6 µm, 40 °C, 0.4 mL/min, estimated dead time 0.55 min; A: water + 0.1% formic acid, pH 3; B: acetonitrile + 0.1% formic acid, pH 3; gradient (min/%B) 0/5 1.12/5 6.41/99.5 10.01/99.5. To be noted: stereoisomer not certain.
Regarding `CCN(CC)C(=O)C(Cl)=C(C)OP(=O)(OC)OC` (mixture of isomers) [Phospamidon (Mix of isomers)], the LC retention time was 3.69 min.

With `CC1(O)CCOC(=O)C1` (racemic) [(±)-Mevalonolactone], the LC retention time is 0.963 min.

Regarding `O=C(O)C(O)Cc1c[nH]c2ccccc12` (racemic) [DL-Indole-3-lactic acid], the LC retention time was 3.13 min.

As for `Cn1cnc2c(ncn2C2OC(CO)C(O)C2O)c1=N` (configuration not stated) [1-METHYLADENOSINE], the LC retention time is 0.965 min.

For `O=C(O)c1cccc(O)c1O` [2,3-DIHYDROXYBENZOATE], the LC retention time is 1.66 min.

With `O=C(O)c1cccnc1C(=O)O` [2,3-Pyridinedicarboxylic acid], the LC retention time is 0.763 min.

For `O=C(O)c1ccc(C(=O)O)o1` [2,5-Furandicarboxylic acid], the LC retention time was 1.08 min.

For `CC(CCC(=O)O)C(=O)O` (configuration not stated) [2-METHYLGLUTARATE], the LC retention time was 2.47 min.

For the compound `O=C(O)c1ccc2ccccc2n1` [2-QUINOLINECARBOXYLATE], the LC retention time was 2.4 min.

As for `O=C(O)c1ccc(O)c(O)c1` [3,4-DIHYDROXYBENZOATE], the LC retention time was 1.66 min.

On to `N[C@@H](Cc1cc(I)c(Oc2ccc(O)cc2)c(I)c1)C(=O)O` [3,5-DIIODO-L-THYRONINE], for which the LC retention time was 3.35 min.

In the case of `N[C@@H](Cc1cc(I)c(O)c(I)c1)C(=O)O` [3,5-DIIODO-L-TYROSINE], the LC retention time was 2.69 min.

For `O=C(O)CCc1ccccc1O` [3-(2-HYDROXYPHENYL)PROPANOATE], the LC retention time was 5.17 min.

With `Nc1cc(C(=O)O)ccc1O` [3-AMINO-4-HYDROXYBENZOATE], the LC retention time was 0.722 min.

As to `Nc1cc(O)cc(C(=O)O)c1` [3-AMINO-5-HYDROXYBENZOATE], the LC retention time was 0.722 min.

`Nc1c(O)cccc1C(=O)O` [3-HYDROXYANTHRANILATE]: the LC retention time was 0.722 min.

For `O=Cc1cccc(O)c1` [3-HYDROXYBENZALDEHYDE], the LC retention time is 2.13 min.

`O=C(O)Cc1c[nH]c2ccccc12` [3-Indoleacetic acid]: the LC retention time was 3.4 min.

For `O=C(O)C=Cc1c[nH]c2ccccc12` [3-Indoleacrylic acid], the LC retention time was 3.58 min.

Regarding `CC1C(=O)Nc2ccccc21` (configuration not stated) [3-METHYL-2-OXINDOLE], the LC retention time was 3.39 min.

As for `CC(C)=CC(=O)NCC(=O)O` [3-Methylcrotonyl Glycine], the LC retention time was 2.29 min.

Consider `CC(CC(=O)[O-])CC(=O)OC(CC(=O)O)C[N+](C)(C)C` (configuration not stated) [3-Methylglutarylcarnitine], for which the LC retention time is 2.25 min.

On to `N[C@@H](Cc1ccc(O)c([N+](=O)[O-])c1)C(=O)O` [3-NITRO-L-TYROSINE], for which the LC retention time is 1.5 min.

For `C[C@H](CCC(=O)O)[C@H]1CC[C@H]2[C@@H]3CC[C@@H]4CC(=O)CC[C@]4(C)[C@H]3CC[C@]12C` [3-Oxo-5β-cholanoic Acid], the LC retention time was 6.05 min.

As for `CC(=O)NCCCC(=O)O` [4-ACETAMIDOBUTANOATE], the LC retention time is 0.817 min.

Consider `O=Cc1ccc(O)cc1` [4-HYDROXYBENZALDEHYDE], for which the LC retention time is 2.13 min.

`Cc1ncc(CO)c(C(=O)O)c1O` [4-PYRIDOXATE]: the LC retention time was 0.768 min.

On to `Cc1ncc2c(c1O)C(=O)OC2` [4-Pyridoxolactone], for which the LC retention time is 0.792 min.

`O=C(O)c1ccnc2ccccc12` [4-QUINOLINECARBOXYLATE]: the LC retention time was 0.782 min.

Take `CC1OC(n2cnc3c(N)ncnc32)C(O)C1O` (configuration not stated) [5'-DEOXYADENOSINE]: the LC retention time is 0.931 min.

As for `Cc1cc2nc[nH]c2cc1C` [5,6 DIMETHYLBENZIMIDAZOLE], the LC retention time is 2.64 min.

As for `CC(C)CCCC(C)C1CCC2C3C(=O)C=C4CC(O)CCC4(C)C3CCC12C` (stereo not drawn) [5-Cholesten-3β-ol-7-one], the LC retention time was 7.56 min.

Regarding `O=C(O)Cc1c[nH]c2ccc(O)cc12` [5-HYDROXYINDOLEACETATE], the LC retention time is 2.47 min.

Turning to `CC(CCCC(C)C1CCC2C3C(O)CC4=CC(=O)CCC4(C)C3CCC12C)C(=O)O` (configuration not stated) [7-Hydroxy-3-oxo-Cholest-4-en-26-oic Acid], the LC retention time is 5.53 min.

Take `CC(C)CCCC(C)C1CCC2C3=CC=C4CC(O)CCC4(C)C3CCC21C` (configuration not stated) [7-dehydrocholesterol]: the LC retention time is 7.48 min.

Turning to `CC(C)CCC[C@@H](C)[C@H]1CC[C@H]2[C@@H]3[C@H](O)CC4=CC(=O)CC[C@]4(C)[C@H]3CC[C@]12C` [7α-Hydroxy-4-cholesten-3-one], the LC retention time is 7.4 min.

In the case of `C=CCCCCCCCC(=O)O` [9-Decenoic acid], the LC retention time was 4.62 min.

As to `C[C@H](CCC(=O)O)[C@H]1CC[C@H]2[C@@H]3[C@H](O)C[C@@H]4C[C@H](O)CC[C@]4(C)[C@H]3CC(=O)[C@]12C` [(3ALPHA,5BETA,7ALPHA)-3,7-DIHYDROXY-12-OXOCHOLAN-24-OIC ACID], the LC retention time is 4.24 min.

Consider `O=C(O)CCCCC(=O)O` [ADIPATE], for which the LC retention time was 2.47 min.

For `Cc1c(C)c2c(c(C)c1O)CCC(C)(CCCC(C)CCCC(C)CCCC(C)C)O2` (stereo not drawn) [ALPHA-TOCOPHEROL], the LC retention time was 5.92 min.

On to `O=CC(O)C(O)C(O)CO` (configuration not stated) [ARABINOSE], for which the LC retention time was 0.798 min.

On to `OC1COC(O)C(O)C1O` (configuration not stated) [ARABINOSE], for which the LC retention time was 0.798 min.

For `CC(=NC#N)N(C)Cc1ccc(Cl)nc1` [Acetamiprid], the LC retention time is 3.33 min.

`C[N+](C)(C)CC(CC(=O)[O-])OC(=O)CCCCC(=O)[O-].[H+]` [Adipoyl-L-carnitine]: the LC retention time was 1.3 min.

On to `CCOC(=O)CCN(Cc1ccccc1)SN(C)C(=O)ON=C(C)SC` [Alanycarb], for which the LC retention time was 5.25 min.

For `O=C(O)CCCCCCCC(O)C(O)CCCCCCO` (configuration not stated) [Aleuritic acid], the LC retention time is 3.52 min.

On to `COc1cc(OC)nc(NC(=O)NS(=O)(=O)N(C)S(C)(=O)=O)n1` [Amidosulfuron], for which the LC retention time was 4.16 min.

Turning to `CNC(=O)Oc1ccc(N(C)C)c(C)c1` [Aminocarb], the LC retention time was 1.6 min.

For the compound `CCCCCC=CCC=CCC=CCC=CCCCC(=O)OC(CC(=O)[O-])C[N+](C)(C)C` [Arachidonyl-L-carnitine], the LC retention time was 5.35 min.

In the case of `Clc1ccc(C2(Cn3cncn3)OCCO2)c(Cl)c1` [Azaconazole], the LC retention time is 4.32 min.

For `COP(=O)(OC)SCn1c(=O)oc2cc(Cl)cnc21` [Azamethiphos], the LC retention time is 3.91 min.

With `COC=C(C(=O)OC)c1ccccc1Oc1cc(Oc2ccccc2C#N)ncn1` [Azoxystrobin], the LC retention time is 4.91 min.

In the case of `O=C(O)c1ccccc1` [BENZOATE], the LC retention time is 2.13 min.

Take `O=C(O)CCCCC1SCC2NC(=O)NC21` (configuration not stated) [BIOTIN]: the LC retention time was 2.7 min.

As to `COC(=O)C(C)N(C(=O)Cc1ccccc1)c1c(C)cccc1C` (configuration not stated) [Benalaxyl], the LC retention time is 5.46 min.

For the compound `CCOC(=O)CCN(SN(C)C(=O)Oc1cccc2c1OC(C)(C)C2)C(C)C` [Benfuracarb], the LC retention time was 6.01 min.

Turning to `COc1ccc(-c2ccccc2)cc1NNC(=O)OC(C)C` [Bifenazate], the LC retention time was 5.09 min.
